From the supplement of paper PMC8882468

Experiments:
Assay in all cases: CTG-3D luminescence at 96 h relative to day-0 seeding control (ratio to day 0); higher = more growth / less cytotoxicity; PDxO 3D drug screen (set 2), 96 h, CTG-3D normalised to day-0 seeding control.
HCI-003.E2 = tested on: HCI-003.E2 (organoid from an ER-positive breast cancer xenograft)
HCI-010 = tested on: HCI-010 (organoid from a breast cancer xenograft)
HCI-011.E2 = tested on: HCI-011.E2 (organoid from an ER-positive breast cancer xenograft)
HCI-012 = tested on: HCI-012 (organoid from a breast cancer xenograft)
HCI-027 = tested on: HCI-027 (organoid from a triple-negative breast cancer xenograft)

CC(=O)O[C@@]12CO[C@@H]1C[C@H](O)[C@@]1(C)C(=O)[C@H](O)C3=C(C)[C@@H](OC(=O)[C@H](O)[C@@H](NC(=O)OC(C)(C)C)c4ccccc4)C[C@@](O)([C@@H](OC(=O)c4ccccc4)[C@H]21)C3(C)C [docetaxel]
CTG-3D luminescence at 96 h
Conditions	12.5 pM	0.00025 µM	0.005 µM	0.1 µM	1 µM	10 µM	100 µM	625 fM
HCI-003.E2	0.748	0.702	0.684	0.627	0.599	0.261	0.0093	0.993
HCI-011.E2	1.19	1.26	1.02	1.32	1.05	0.933	0.118	1.35

CTG-3D luminescence at 96 h
Conditions	12.5 pM	0.00025 µM	0.005 µM	0.1 µM	1 µM	10 µM	100 µM	625 fM
HCI-010, days in culture: 79	1.26	1.41	1.14	0.967	0.815	0.987	0.000117	1.74
HCI-010, days in culture: 86	2.16	2.35	2.01	0.907	0.734	0.847	0.00279	2.24
HCI-010, days in culture: 102	1.2	0.987	0.747	0.491	0.519	0.375	0.00091	1.07
HCI-010, days in culture: 164	1.68	1.45	1.1	0.611	0.719	0.646	0.00438	1.43
HCI-011.E2, days in culture: 74	2.53	2.12	1.78	1.48	1.09	0.702	0.133	2.19
HCI-012, days in culture: 214	1.03	0.8	0.461	0.578	0.404	0.777	0.105	0.817
HCI-012, days in culture: 243	1.3	1.44	0.758	0.52	0.65	0.926	0.441	1.69
HCI-012, days in culture: 256	2.14	2.22	1.58	0.695	0.649	0.506	0.405	2.16
HCI-012, days in culture: 284	2.14	3.21	1.16	0.569	0.537	0.49	0.0331	4.21
HCI-027, days in culture: 145	1.01	0.93	0.832	0.862	0.922	0.849	0.15	1.06
HCI-027, days in culture: 158	2.07	2.12	1.05	0.461	1.19	2.61	0.153	3.28
HCI-027, days in culture: 164	2.42	1.32	0.405	0.525	0.555	0.505	0.117	1.04
HCI-027, days in culture: 176	3.89	2.21	0.338	0.629	0.457	0.475	0.0832	2.73
HCI-027, days in culture: 186	1.45	1.25	0.855	0.693	0.469	0.451	0.0466	2.08

COc1cccc2c1C(=O)c1c(O)c3c(c(O)c1C2=O)C[C@@](O)(C(=O)CO)C[C@@H]3O[C@H]1C[C@H](N)[C@@H](O)[C@H](C)O1 [epirubicin]
CTG-3D luminescence at 96 h
Conditions	12.5 pM	0.00025 µM	0.005 µM	0.1 µM	1 µM	10 µM	100 µM	625 fM
HCI-003.E2	2.55	2.48	2.34	2.23	0.712	0.0173	0.000274	3.06
HCI-011.E2	1.49	1.68	1.53	1.6	0.861	0.0857	-0.000843	1.72

CTG-3D luminescence at 96 h
Conditions	12.5 pM	0.00025 µM	0.005 µM	0.1 µM	1 µM	10 µM	100 µM	625 fM
HCI-010, days in culture: 79	1.82	1.96	2.1	0.453	0.114	0.0313	-0.00605	2.12
HCI-010, days in culture: 86	1.93	2.45	2.56	0.972	0.179	0.0423	-0.00278	2.25
HCI-010, days in culture: 102	1.1	1.22	1.01	0.19	0.064	0.0201	-0.000814	0.986
HCI-010, days in culture: 164	1.68	1.75	1.67	0.67	0.214	0.0976	-0.00123	1.45
HCI-011.E2, days in culture: 74	2.38	2.27	2.26	2.8	0.677	0.0499	-0.0143	2.23
HCI-012, days in culture: 214	2.15	2.5	1.28	0.214	0.0452	0.0186	-0.0053	5.03
HCI-012, days in culture: 243	1.9	2.59	1.74	0.228	0.0532	0.0739	-0.006	2.23
HCI-012, days in culture: 256	1.75	2.22	1.73	0.43	0.059	0.0309	-0.0077	2.4
HCI-012, days in culture: 284	1.9	2.3	1.39	0.413	0.0294	0.0662	-0.00241	3.07
HCI-027, days in culture: 145	1.6	2.63	1.78	0.146	0.087	0.0692	-0.00274	1.49
HCI-027, days in culture: 158	3.01	2.81	2.46	0.544	0.0846	0.202	-0.00223	4.2
HCI-027, days in culture: 164	2.5	1.5	1.53	0.169	0.142	0.104	-0.00102	3.34
HCI-027, days in culture: 176	3.02	2.26	1.43	0.676	0.0317	0.0395	-0.000121	2.01
HCI-027, days in culture: 186	1.68	0.902	1.46	0.866	0.0439	0.0934	-0.00168	2.13
